Patent US20230149364A1, “METHODS OF TREATING VIRAL INFECTIONS” (EAGLE PHARMACEUTICALS, INC., priority 2020, published 2023)
Values after ≈ are worked out from the molar mass of the structure shown. Values joined by “and” are separate entries in the source; they are usually repeats but may differ in a detail not shown here. Identical values can stand only once. Like-named read-outs stand apart in the source and are kept apart here.

Columns and labels:
[1] = test system: SARS-CoV-2; assay: Virus neutralization (VN) assay, scoring of SARS-CoV-2 cytopathic effects (CPE) in Vero E6 cells; format: cell-based
[2] = test system: Vero E6 cells

Structure (SMILES): O=C1CN(/N=C/c2ccc(-c3ccc([N+](=O)[O-])cc3)o2)C(O)=N1 [dantrolene]
- CPE [1]: no CPE was observed
- Day 2 Read (CPE) [1]: 3/3 wells had No CPE and 3/3 walls n34 > 90% CPE
- Day 4 Read (CPE) [1]: 3/3 wells had No CPE and 2/3 wells had > J0% CPE and 1/3 wells had > 90% CPE and 3/3 wells had > 90% CPE
- Day 6 Read (CPE) [1]: 3/3 wells had No CPE and 2/3 wells had > 90% CPE and 1/3 wells had > 90% CPE and 3/3 wells had > 90% CPE
- Day 2 Read (CPE) ([1]; 50 μM dantrolene, Day 2): 3/3 wells had sparse
- Day 4 Read (CPE) ([1]; 50 μM dantrolene, Day 4): 3/3 wells had sparse
- Day 6 Read (CPE) ([1]; 50 μM dantrolene, Day 6, cell wraps on: 'confluency but greater than Day 4'): 3/3 wells had sparse
- cytopathic effects (virus growth) ([1]; 20 and 40 μM dantrolene, all timepoints): No cytopathic effects
- MIC ([1]; Severe acute respiratory syndrome coronavirus 2, 144 h, SARS-CoV-2 in Vero E6 cells, no CPE across all time points (6 days), read-out: minimum inhibitory concentration): 20 µM (≈ 6.29 µg/mL)
- anti-viral activity ([1]; lower concentrations of 10 and 5 μM): also showed anti-viral activity
- cell growth at Day 6 ([2]; 50 μM dilution, Day 6 post-infection, decreased compared to lower dilutions): rebound cell growth
- cytopathic effects at highest concentrations ([2]; 50 and 100 μM, Days 2 and 4, both infected cells and uninfected controls): showed cytopathic effects
- Cytotoxic effects ([2]; African green monkey): Cytotoxic effects were only observed at the 2 highest dantrolene concentrations
- cell viability of uninfected Vero E6 cells ([2]; lower dilutions (<50 μM dantrolene), uninfected): good cell viability
